Assay results: patent US20240384350A1, “METHODS OF TREATING CANCER WITH KINASE INHIBITORS” (BOARD OF REGENTS, THE UNIVERSITY OF TEXAS SYSTEM, priority 2021, published 2024)

Assays:
Test in all cases: Ba/F3 drug screening, Cell Titer Glo, IC50 Mut/WT
Assay type in all cases: cell-based
[1] = target: T1, EGFR V769L (Homo sapiens, UniProt P00533, V769L); conditions: Ba/F3 cells, EGFR V769L (PACC), Mut/WT
T1 construct: expressed in transfected cells; host or cells: Ba/F3
Method: (§1) Data represent the ratio of the IC50 value for a given TKI for cells with a PACC EGFR mutation to the IC50 value for cells with wildtype EGFR.
(§2) Ba/F3 cell generation, drug screening, and IC50 approximations. Ba/F3 cells were obtained as a gift from Dr. Gordon Mills (MD Anderson Cancer Center), and maintained in RPMI (Sigma) containing 10% FBS, 1% penicillin/streptomycin, and 10 ng/ml recombinant mIL-3 (R&D Biosystems). To establish stable Ba/F3 cell lines, Ba/F3 cells were transduced with retroviruses containing mutant EGFR plasmids for 12-24 hours.
(§3) After 48-72 hours of transduction, 2 μg/ml puromycin (Invitrogen) was added to Ba/F3 cell lines in complete RPMI. To select for EGFR positive cell lines, cells were stained with PE-EGFR (Biolegend) and sorted by FACS. After sorting, EGFR positive cells were maintained in RPMI containing 10% FBS, 1% penicillin/streptomycin, and 1 ng/ml EGF to support cell viability. Drug screening was performed as previously described^41,42. Shortly, cells were plated in 384-well plates (Greiner Bio-One) at 2000-3000 cells per well in technical triplicate. Seven different concentrations of TKIs or DMSO vehicle were added to reach a final volume of 40 μL per well. After 72 hours, 11 μL of Cell Titer Glo (Promega) was added to each well. Plates were incubated for a minimum of 10 minutes, and bioluminescence was determined using a FLUOstar OPTIMA plate reader (BMG LABTECH). Raw bioluminescence values were normalized to DMSO control treated cells, and values were plotted in GraphPad Prism. […] Drug screens were performed in technical triplicate on each plate and either duplicate or triplicate biological replicates.

[2] = target: T2, EGFR L858R T790M V843I (Homo sapiens, UniProt P00533, L858R/T790M/V843I); conditions: T790M-like-3S, 72 hours
T2 construct: expressed in transfected cells; host or cells: Ba/F3

[3] = target: T3, EGFR S768I/V769L (Homo sapiens, UniProt P00533, S768I/V769L); conditions: Ba/F3 cells, EGFR S768I/V769L (PACC), Mut/WT
T3 construct: host or cells: Ba/F3
Method: as §1, §2, §3

[4] = target: T4, EGFR S768I/T790M (Homo sapiens, UniProt P00533, S768I/T790M); conditions: T790M-like-3S, 72 hours
T4 construct: expressed in transfected cells; host or cells: Ba/F3

[5] = target: T5, EGFR Ex19del L718V (Homo sapiens, UniProt P00533, DEL746-750/L718V); conditions: Ba/F3 cells, EGFR Ex19del L718V (PACC), Mut/WT
T5 construct: expressed in transfected cells; host or cells: Ba/F3

[6] = target: T6, EGFR S811F (Homo sapiens, UniProt P00533, S811F); conditions: Classical-Like, 72 hours
T6 construct: expressed in transfected cells; host or cells: Ba/F3 cells, retroviral pBabe-Puro vector (vector made by GeneScript from EGFR WT)
Method: (§4) Data represent the ratio of the IC50 value for a given TKI for cells with a classical-like EGFR mutation to the IC50 value for cells with wildtype EGFR.
as §2
(§5) After 48-72 hours of transduction, 2 μg/ml puromycin (Invitrogen) was added to Ba/F3 cell lines in complete RPMI. To select for EGFR positive cell lines, cells were stained with PE-EGFR (Biolegend) and sorted by FACS. After sorting, EGFR positive cells were maintained in RPMI containing 10% FBS, 1% penicillin/streptomycin, and 1 ng/ml EGF to support cell viability. […] Shortly, cells were plated in 384-well plates (Greiner Bio-One) at 2000-3000 cells per well in technical triplicate. Seven different concentrations of TKIs or DMSO vehicle were added to reach a final volume of 40 μL per well. After 72 hours, 11 μL of Cell Titer Glo (Promega) was added to each well. Plates were incubated for a minimum of 10 minutes, and bioluminescence was determined using a FLUOstar OPTIMA plate reader (BMG LABTECH). Raw bioluminescence values were normalized to DMSO control treated cells, and values were plotted in GraphPad Prism. […] Drug screens were performed in technical triplicate on each plate and either duplicate or triplicate biological replicates.

[7] = target: T7, EGFR E709A (Homo sapiens, UniProt P00533, E709A); conditions: Ba/F3 cells, EGFR E709A (PACC), Mut/WT
T7 construct: expressed in transfected cells; host or cells: Ba/F3
Method: as §1, §2, §3

[8] = target: T8, EGFR A763insFQEA (Homo sapiens, UniProt P00533, INS763FQEA); conditions: Classical-Like, 72 hours
T8 construct: expressed in transfected cells; host or cells: Ba/F3 cells, retroviral pBabe-Puro vector

[9] = target: T9, EGFR V774M (Homo sapiens, UniProt P00533, V774M); conditions: Ba/F3 cells, EGFR V774M (PACC), Mut/WT
T9 construct: host or cells: Ba/F3

[10] = target: T10, EGFR L747S (Homo sapiens, UniProt P00533, L747S); conditions: Ba/F3 cells, EGFR L747S (PACC), Mut/WT
T10 construct: expressed in transfected cells; host or cells: Ba/F3
Method: as §1, §2, §3

[11] = target: T11, EGFR L858R T790M L792H (Homo sapiens, UniProt P00533, L792H/L858R/T790M); conditions: T790M-like-3S, 72 hours
T11 construct: expressed in transfected cells; host or cells: Ba/F3

[12] = target: T12, EGFR Ex19del L718Q (Homo sapiens, UniProt P00533, DEL746-750/L718Q); conditions: Ba/F3 cells, EGFR Ex19del L718Q (PACC), Mut/WT
T12 construct: expressed in transfected cells; host or cells: Ba/F3

[13] = target: T13, EGFR L858R L718Q (Homo sapiens, UniProt P00533, L718Q/L858R); conditions: Ba/F3 cells, EGFR L858R L718Q (PACC), Mut/WT
T13 construct: host or cells: Ba/F3
Method: as §1, §2, §3

[14] = target: T14, EGFR G719A L861Q (Homo sapiens, UniProt P00533, G719A/L861Q); conditions: Ba/F3 cells, EGFR G719A L861Q (PACC), Mut/WT
T14 construct: expressed in transfected cells; host or cells: Ba/F3

[15] = target: T15, EGFR A763insLQEA (Homo sapiens, UniProt P00533, INS763LQEA); conditions: Classical-Like, 72 hours
T15 construct: expressed in transfected cells; host or cells: Ba/F3 cells, retroviral pBabe-Puro vector
Method: as §4, §2, §5

[16] = target: T16, EGFR L747P (Homo sapiens, UniProt P00533, L747P); conditions: Ba/F3 cells, EGFR L747P (PACC), Mut/WT
T16 construct: expressed in transfected cells; host or cells: Ba/F3

[17] = target: T17, EGFR A767insASV (Homo sapiens, UniProt P00533, DUP767-769); conditions: Ex20, 72 hours
T17 construct: expressed in transfected cells; host or cells: Ba/F3 cells, retroviral pBabe-Puro vector
Method: Data represent the ratio of the IC50 value for a given TKI for cells with an ex20ins EGFR mutation to the IC50 value for cells with wildtype EGFR.
as §2
After 48-72 hours of transduction, 2 μg/ml puromycin (Invitrogen) was added to Ba/F3 cell lines in complete RPMI. To select for EGFR positive cell lines, cells were stained with PE-EGFR (Biolegend) and sorted by FACS. After sorting, EGFR positive cells were maintained in RPMI containing 10% FBS, 1% penicillin/streptomycin, and 1 ng/ml EGF to support cell viability. Drug screening was performed as previously described^41,42. Shortly, cells were plated in 384-well plates (Greiner Bio-One) at 2000-3000 cells per well in technical triplicate. Seven different concentrations of TKIs or DMSO vehicle were added to reach a final volume of 40 μL per well. After 72 hours, 11 μL of Cell Titer Glo (Promega) was added to each well. Plates were incubated for a minimum of 10 minutes, and bioluminescence was determined using a FLUOstar OPTIMA plate reader (BMG LABTECH). Raw bioluminescence values were normalized to DMSO control treated cells, and values were plotted in GraphPad Prism. […] Drug screens were performed in technical triplicate on each plate and either duplicate or triplicate biological replicates. […] Statistical differences between groups were determined by ANOVA as described in the figure legends.

[18] = target: T18, EGFR L858R/T790M/C797S (Homo sapiens, UniProt P00533, C797S/L858R/T790M); conditions: T790M-like-3R, 72 hours
T18 construct: expressed in transfected cells; host or cells: Ba/F3

[19] = target: T19, EGFR L861Q (Homo sapiens, UniProt P00533, L861Q); conditions: Classical-Like, 72 hours
T19 construct: expressed in transfected cells; host or cells: Ba/F3 cells, retroviral pBabe-Puro vector
Method: as §4, §2, §5

[20] = target: T20, EGFR G719A T790M (Homo sapiens, UniProt P00533, G719A/T790M); conditions: T790M-like-3S, 72 hours
T20 construct: expressed in transfected cells; host or cells: Ba/F3

[21] = target: T21, EGFR Ex19del G724S (Homo sapiens, UniProt P00533, DEL746-750/G724S); conditions: Ba/F3 cells, EGFR Ex19del G724S (PACC), Mut/WT
T21 construct: expressed in transfected cells; host or cells: Ba/F3
Method: as §1, §2, §3

[22] = target: T22, EGFR L718V (Homo sapiens, UniProt P00533, L718V); conditions: Ba/F3 cells, EGFR L718V (PACC), Mut/WT
T22 construct: expressed in transfected cells; host or cells: Ba/F3

[23] = target: T23, EGFR L718Q T790M (Homo sapiens, UniProt P00533, L718Q/T790M); conditions: T790M-like-3R, 72 hours
T23 construct: expressed in transfected cells; host or cells: Ba/F3

[24] = target: T24, EGFR S768dupSVD (Homo sapiens, UniProt P00533, DUP768-770); conditions: Ex20, 72 hours
T24 construct: expressed in transfected cells; host or cells: Ba/F3 cells, retroviral pBabe-Puro vector

[25] = target: T25, EGFR E709K G719S (Homo sapiens, UniProt P00533, E709K/G719S); conditions: Ba/F3 cells, EGFR E709K G719S (PACC), Mut/WT
T25 construct: expressed in transfected cells; host or cells: Ba/F3

[26] = target: T26, EGFR S784F (Homo sapiens, UniProt P00533, S784F); conditions: Classical-Like, 72 hours
T26 construct: expressed in transfected cells; host or cells: Ba/F3 cells, retroviral pBabe-Puro vector (vector made by GeneScript from EGFR WT)

[27] = target: T27, EGFR L718Q (Homo sapiens, UniProt P00533, L718Q); conditions: Ba/F3 cells, EGFR L718Q (PACC), Mut/WT
T27 construct: expressed in transfected cells; host or cells: Ba/F3
Method: as §1, §2, §3

Row | ratio of the IC50 value for cells with a PACC EGFR mutation to the IC50 value for cells with wildtype EGFR [1] | ratio of IC50 for cells with mutant EGFR to IC50 for cells with wildtype EGFR (Mut/WT) [2] | ratio of the IC50 value for cells with a PACC EGFR mutation to the IC50 value for cells with wildtype EGFR [3] | ratio of IC50 for cells with mutant EGFR to IC50 for cells with wildtype EGFR (Mut/WT) [4] | ratio of the IC50 value for cells with a PACC EGFR mutation to the IC50 value for cells with wildtype EGFR [5] | ratio of IC50 for cells with mutant EGFR to IC50 for cells with wildtype EGFR (Mut/WT) [6] | ratio of the IC50 value for cells with a PACC EGFR mutation to the IC50 value for cells with wildtype EGFR [7] | ratio of IC50 for cells with mutant EGFR to IC50 for cells with wildtype EGFR (Mut/WT) [8] | ratio of the IC50 value for cells with a PACC EGFR mutation to the IC50 value for cells with wildtype EGFR [9] | ratio of the IC50 value for cells with a PACC EGFR mutation to the IC50 value for cells with wildtype EGFR [10] | ratio of IC50 for cells with mutant EGFR to IC50 for cells with wildtype EGFR (Mut/WT) [11] | ratio of the IC50 value for cells with a PACC EGFR mutation to the IC50 value for cells with wildtype EGFR [12] | ratio of the IC50 value for cells with a PACC EGFR mutation to the IC50 value for cells with wildtype EGFR [13] | ratio of the IC50 value for cells with a PACC EGFR mutation to the IC50 value for cells with wildtype EGFR [14] | ratio of IC50 for cells with mutant EGFR to IC50 for cells with wildtype EGFR (Mut/WT) [15] | ratio of the IC50 value for cells with a PACC EGFR mutation to the IC50 value for cells with wildtype EGFR [16] | ratio of IC50 for cells with mutant EGFR to IC50 for cells with wildtype EGFR (Mut/WT) [17] | ratio of IC50 for cells with mutant EGFR to IC50 for cells with wildtype EGFR (Mut/WT) [18] | ratio of IC50 for cells with mutant EGFR to IC50 for cells with wildtype EGFR (Mut/WT) [19] | ratio of IC50 for cells with mutant EGFR to IC50 for cells with wildtype EGFR (Mut/WT) [20] | SMILES | other results
1 | 1.624 | 0.01519 | 1.734 | 0.1426 | 0.1035 | 0.0351 | 0.0743 | 0.1912 | 0.2862 | 0.8911 | 0.03529 | 0.05586 | 5.547 | 0.03136 | 0.3419 | 3.507 | 1.61 | 32.29 | 0.1616 | 0.08702 | C=CC(=O)N1CC[C@@H](Oc2nc(Nc3ccc(N4CCC(N5CCN(C)CC5)CC4)cc3)c(C(N)=O)nc2CC)C1 [Naquotinib] | ratio of the IC50 value for cells with a PACC EGFR mutation to the IC50 value for cells with wildtype EGFR [21]: 0.8866; ratio of the IC50 value for cells with a PACC EGFR mutation to the IC50 value for cells with wildtype EGFR [22]: 0.5426; ratio of IC50 for cells with mutant EGFR to IC50 for cells with wildtype EGFR (Mut/WT) [23]: 1.576; ratio of IC50 for cells with mutant EGFR to IC50 for cells with wildtype EGFR (Mut/WT) [24]: 1.135; ratio of the IC50 value for cells with a PACC EGFR mutation to the IC50 value for cells with wildtype EGFR [25]: 0.5339; ratio of IC50 for cells with mutant EGFR to IC50 for cells with wildtype EGFR (Mut/WT) [26]: 0.3727; ratio of the IC50 value for cells with a PACC EGFR mutation to the IC50 value for cells with wildtype EGFR [27]: 5.448
2 | 1.367 | 0.6934 | 0.599 | 1.619 | 1.339 | 0.002871 | 0.219 | 0.3966 | 0.5635 | 4.201 | 0.5871 | 1.487 | 1.635 | 0.8044 | 0.03029 | 3.59 | 4.661 | 78.11 | 0.5871 | 0.1667 | C=CC(=O)Nc1cc(Nc2nccc(-c3c[nH]c4ccccc34)n2)c(OC)cc1N(C)CCN(C)C [AZ5104] | ratio of the IC50 value for cells with a PACC EGFR mutation to the IC50 value for cells with wildtype EGFR [21]: 3.178; ratio of the IC50 value for cells with a PACC EGFR mutation to the IC50 value for cells with wildtype EGFR [22]: 2.622; ratio of IC50 for cells with mutant EGFR to IC50 for cells with wildtype EGFR (Mut/WT) [23]: 26.6; ratio of IC50 for cells with mutant EGFR to IC50 for cells with wildtype EGFR (Mut/WT) [24]: 1.73; ratio of the IC50 value for cells with a PACC EGFR mutation to the IC50 value for cells with wildtype EGFR [25]: 0.7973; ratio of IC50 for cells with mutant EGFR to IC50 for cells with wildtype EGFR (Mut/WT) [26]: 0.01428; ratio of the IC50 value for cells with a PACC EGFR mutation to the IC50 value for cells with wildtype EGFR [27]: 11.32
